What was measured:
[1] = test system: Puccinia recondita f. sp. tritici; test: Test C: wheat leaf rust control on wheat seedlings; type: in vivo; conditions: sprayed to run-off on wheat seedlings, inoculated the following day, 100 = 100% disease control, 0 = no control; for pest or weed control at 10 ppm: Puccinia recondita, 168 h, read-out: Test C disease control rating
Excerpt: General protocol for preparing test suspensions for Tests A-C: the test compounds were first dissolved in acetone in an amount equal to 3% of the final volume and then suspended at the desired concentration (in ppm) in acetone and purified water (50/50 mix by volume) containing 250 ppm of the surfactant PEG400 (polyhydric alcohol esters). The resulting test suspensions were then used in Tests A-C. The test solution was sprayed to the point of run-off on wheat seedlings. The following day the seedlings were inoculated with a spore suspension of Puccinia recondita f. sp. tritici (the causal agent of wheat leaf rust) and incubated in a saturated atmosphere at 20° C. for 24 h, and then moved to a growth chamber at 20° C. for 6 days, after which time disease ratings were made. Results for Tests A-C are given in Table A. In the Table, a rating of 100 indicates 100% disease control and a rating of 0 indicates no disease control (relative to the controls). A dash (-) indicates the compound was not tested.

[2] = test system: Phakopsora pachyrhizi; test: Test A: Asian soybean rust control on soybean seedlings; type: in vivo; conditions: sprayed to run-off on soybean seedlings, inoculated the following day, 100 = 100% disease control, 0 = no control; for pest or weed control at 10 ppm: Phakopsora pachyrhizi, 216 h, read-out: Test A disease control rating
Excerpt: General protocol for preparing test suspensions for Tests A-C: the test compounds were first dissolved in acetone in an amount equal to 3% of the final volume and then suspended at the desired concentration (in ppm) in acetone and purified water (50/50 mix by volume) containing 250 ppm of the surfactant PEG400 (polyhydric alcohol esters). The resulting test suspensions were then used in Tests A-C.
The test solution was sprayed to the point of run-off on soybean seedlings. The following day the seedlings were inoculated with a spore suspension of Phakopsora pachyrhizi (the causal agent of Asian soybean rust) and incubated in a saturated atmosphere at 22° C. for 24 h, and then moved to a growth chamber at 22° C. for 8 days, after which time visual disease ratings were made.
Results for Tests A-C are given in Table A. In the Table, a rating of 100 indicates 100% disease control and a rating of 0 indicates no disease control (relative to the controls). A dash (-) indicates the compound was not tested.

| SMILES | Test C disease control rating ([1]; 10 ppm) | Test A disease control rating ([2]; 10 ppm) | further results |
| --- | --- | --- | --- |
| CCNC(=O)OC(C)c1ccc(-c2noc(C(F)(F)F)n2)cc1 (racemic) [Compound 19] | 74% | 100% | – |
| COC(=O)c1ccc(CNC(=O)OC(C)c2ccc(-c3noc(C(F)(F)F)n3)cc2)cc1 (racemic) [Compound 25] | 26% | 100% | – |
| CCOC(=O)c1ccc(CNC(=O)OC(C)c2ccc(-c3noc(C(F)(F)F)n3)cc2)cc1 (racemic) [Compound 27] | 0% | 100% | – |
| CCNC(=O)OCCCc1ccc(-c2noc(C(F)(F)F)n2)cc1 [Compound 20] | 99% | 100% | – |
| O=C(OCCCc1ccc(-c2noc(C(F)(F)F)n2)cc1)n1ccnc1 [Compound 21] | – | – | Test C disease control rating ([1]; 50 ppm): 99%; Test A disease control rating ([2]; 50 ppm): 100% |
| O=C(Nc1cccnc1)OCc1ccc(-c2noc(C(F)(F)F)n2)cc1 [Compound 22] | 97% | 99% | – |
| CC(OC(=O)Nc1cccnc1)c1ccc(-c2noc(C(F)(F)F)n2)cc1 (stereo not shown) [Compound 23, 1-[4-[5-(trifluoromethyl)-1,2,4-oxadiazol-3-yl]phenyl]ethyl N-3-pyridinylcarbamate] | – | – | pest or weed control at 10 ppm ([1]; 10 ppm): 97%; pest or weed control at 10 ppm ([2]; 10 ppm): 100% |
| COC(=O)c1ccc(CNC(=O)OCc2ccc(-c3noc(C(F)(F)F)n3)cc2)cc1 [Compound 24] | 68% | 13% | – |
| CCOC(=O)c1ccc(CNC(=O)OCc2ccc(-c3noc(C(F)(F)F)n3)cc2)cc1 [Compound 26] | 26% | 95% | – |
| CN(C)C(=O)OCCCc1ccc(-c2noc(C(F)(F)F)n2)cc1 [Compound 28] | 40% | 100% | – |
| C=CCNC(=O)OCCCc1ccc(-c2noc(C(F)(F)F)n2)cc1 [Compound 29] | 74% | 100% | – |
| C#CCNC(=O)OCCCc1ccc(-c2noc(C(F)(F)F)n2)cc1 [Compound 30] | 99% | 100% | – |
| CNC(=O)OCCCc1ccc(-c2noc(C(F)(F)F)n2)cc1 [Compound 31] | 99% | 100% | – |
| O=C(Nc1cccnc1)OCCc1ccc(-c2noc(C(F)(F)F)n2)cc1 [Compound 34] | – | – | Test C disease control rating ([1]; 50 ppm): 98%; Test A disease control rating ([2]; 50 ppm): 100% |
| O=C(Nc1cccnc1)OCCCc1ccc(-c2noc(C(F)(F)F)n2)cc1 [Compound 35] | – | – | Test C disease control rating ([1]; 50 ppm): 100%; Test A disease control rating ([2]; 50 ppm): 100% |
| CC#CCNC(=O)OCc1ccc(-c2noc(C(F)(F)F)n2)cc1 [Compound 36] | 100% | 100% | – |
| C#CCNC(=O)OCc1ccc(-c2noc(C(F)(F)F)n2)s1 [Compound 37] | – | – | Test C disease control rating ([1]; 50 ppm): 100%; Test A disease control rating ([2]; 50 ppm): 100% |
| O=C(OCCc1ccc(-c2noc(C(F)(F)F)n2)cc1)n1ccnc1 [Compound 40, 2-[4-[5-(trifluoromethyl)-1,2,4-oxadiazol-3-yl]phenyl]ethyl-1H-imidazole-1-carboxylate] | – | – | pest or weed control at 10 ppm ([1]; 10 ppm): 18%; pest or weed control at 10 ppm ([2]; 10 ppm): 0% |
| NC(=O)OCCc1ccc(-c2noc(C(F)(F)F)n2)cc1 [Compound 41] | 99% | 100% | – |
| CN(C)C(=O)OCCc1ccc(-c2noc(C(F)(F)F)n2)cc1 [Compound 44] | 41% | 100% | – |
| C#CCNC(=O)OCCc1ccc(-c2noc(C(F)(F)F)n2)cc1 [Compound 45] | 93% | 100% | – |
| COC(=O)c1ccc(NC(=O)OCc2ccc(-c3noc(C(F)(F)F)n3)cc2)cc1 [Compound 47] | – | – | Test C disease control rating ([1]; 50 ppm): 41%; Test A disease control rating ([2]; 50 ppm): 100% |
| COC(=O)c1ccc(NC(=O)OC(C)c2ccc(-c3noc(C(F)(F)F)n3)cc2)cc1 (stereo not shown) [Compound 48] | – | – | Test C disease control rating ([1]; 50 ppm): 97%; Test A disease control rating ([2]; 50 ppm): 100% |

Reference: patent US11540518B2, “Fungicidal oxadiazoles” (FMC Corporation, priority 2017, dated 2023)
